We go through eight molecules from ChEMBL document CHEMBL1140671, “Interaction of O-(undec-10-en)-yl-D-glucose derivatives with the Plasmodium falciparum hexose transporter (PfHT)” (Bioorg Med Chem Lett, 2007).

Structures are written as SMILES. Activity calls are given as the source filed them. The calls are words filed in the database; no cut-off is given here.

A word on the Ki: it is a dissociation constant, usually derived from enzyme kinetics or from competition with a known ligand. Low readings indicate a stronger hold on the target, high ones a looser hold on the target. The IC50 is the midpoint of a concentration-inhibition curve. Read a high IC50 as weaker potency in that assay.

One experiment addresses T1, Hexose transporter 1 (Plasmodium falciparum, UniProt O97467).
T1 sequence (O97467 whole entry): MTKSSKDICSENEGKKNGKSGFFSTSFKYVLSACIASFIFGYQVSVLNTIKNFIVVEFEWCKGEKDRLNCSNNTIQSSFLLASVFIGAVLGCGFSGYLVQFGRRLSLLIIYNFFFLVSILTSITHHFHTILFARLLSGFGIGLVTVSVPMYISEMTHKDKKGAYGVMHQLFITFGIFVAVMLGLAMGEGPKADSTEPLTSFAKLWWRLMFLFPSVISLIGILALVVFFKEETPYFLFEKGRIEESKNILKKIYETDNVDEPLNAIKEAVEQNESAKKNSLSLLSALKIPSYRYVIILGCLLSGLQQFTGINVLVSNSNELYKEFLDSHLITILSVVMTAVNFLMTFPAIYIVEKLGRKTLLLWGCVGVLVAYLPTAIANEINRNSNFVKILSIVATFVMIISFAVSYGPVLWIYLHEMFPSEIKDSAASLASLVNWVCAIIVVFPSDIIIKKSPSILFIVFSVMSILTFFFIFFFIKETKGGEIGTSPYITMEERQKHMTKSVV
The experiment can be described thus: Inhibition of [3H]glucose uptake at Plasmodium falciparum HT expressed in Xenopus laevis oocytes. It counts as cell-based, Oocyte.

The target of experiment [1] is T2, Solute carrier family 2, facilitated glucose transporter member 1 (Homo sapiens) (UniProt P11166).
T2 sequence (whole entry): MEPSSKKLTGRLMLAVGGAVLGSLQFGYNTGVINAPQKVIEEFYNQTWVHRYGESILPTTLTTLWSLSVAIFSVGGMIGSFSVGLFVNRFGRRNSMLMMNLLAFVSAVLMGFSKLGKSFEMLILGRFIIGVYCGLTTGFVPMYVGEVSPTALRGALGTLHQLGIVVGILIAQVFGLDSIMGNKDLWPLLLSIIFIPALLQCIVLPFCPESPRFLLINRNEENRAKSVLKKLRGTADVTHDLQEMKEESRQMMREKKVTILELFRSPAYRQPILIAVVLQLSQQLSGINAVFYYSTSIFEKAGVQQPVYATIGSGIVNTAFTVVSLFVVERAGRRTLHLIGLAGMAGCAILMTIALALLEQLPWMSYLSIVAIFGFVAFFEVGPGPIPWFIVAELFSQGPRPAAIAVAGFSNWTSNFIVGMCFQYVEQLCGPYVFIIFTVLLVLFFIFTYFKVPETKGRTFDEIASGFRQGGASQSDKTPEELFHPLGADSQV
Put plainly: (§1) Inhibition of [3H]glucose uptake at mammalian GLUT1 expressed in Xenopus laevis oocytes. Type of experiment: cell-based. As to conditions: Oocyte.

The target in experiment [2] is T3, Solute carrier family 2, facilitated glucose transporter member 1 (Homo sapiens, UniProt P11166).
T3 sequence (P11166 whole entry): T2 sequence (whole entry)
Described as §1. It counts as cell-based, Oocyte.

For the next experiment, the system named is Plasmodium falciparum. Put plainly: Antiplasmodial activity against Plasmodium falciparum 3D7. Type of experiment: functional, organism-based.

At Hexose transporter 1, `C=CCCCCCCCCCO[C@H]1O[C@H]([C@H](O)CO)[C@H](O)[C@H]1O` registered a Ki of more than 500 µM. The result in experiment [1] was inactive.
`C=CCCCCCCCCCO[C@@H]1O[C@H]([C@H](O)CO)[C@H](O)[C@H]1O` gave a Ki on Hexose transporter 1 of more than 500 µM. Also, the outcome in experiment [1] was inactive.
In the same order, the values of `C=CCCCCCCCCCO[C@H]1O[C@H](CO)[C@@H](O)[C@H](O)[C@H]1O` are more than 500 µM and “inactive”.
In the same order, the values of `C=CCCCCCCCCCO[C@H](CO)[C@H]1OC(O)[C@H](O)[C@H]1O` (stereo partly drawn) are 1500 µM and “inactive”.
As to `C=CCCCCCCCCCOC[C@H]1OC(O)[C@H](O)[C@@H](O)[C@@H]1O` (stereo partly drawn), the inhibitory constant (Ki) at Hexose transporter 1 came out at 2000 µM; in experiment [2] it was 400 µM.
Take `C=CCCCCCCCCCO[C@@H]1O[C@H](CO)[C@@H](O)[C@H](O)[C@H]1O`: the Ki (on Hexose transporter 1; in experiment [2]) was more than 500 µM each time.
For `C=CCCCCCCCCCO[C@H]1[C@H](O)[C@@H](CO)OC(O)[C@@H]1O` (stereo partly drawn), the results for the Ki (on Hexose transporter 1; in experiment [2]) were 26 µM and 98 µM, respectively. In the experiment with Plasmodium falciparum, half-maximal inhibition (IC50) required 123 µM.
In the case of `C=CCCCCCCCCCO[C@H]1C(O)O[C@H](CO)[C@@H](O)[C@@H]1O` (stereo partly drawn), the Ki on Hexose transporter 1 is 2 µM. Also, the result in experiment [1] was inactive. The molecule also showed a half-maximal inhibitory concentration (IC50) with Plasmodium falciparum of 8.2 µM.
